# Test results taken from patent publication US11912723B2, “KRAS modulators and uses thereof” (Quanta Therapeutics, Inc., priority 2022, dated 2024).
# Target: T1, KRAS G12D/RAF1 (Homo sapiens, UniProt P01116, G12D)
# T1 construct: KRAS (1-169) proteins were expressed in E. coli at 18° C; His6-MBP (N, cleaved yes); made in house; host or cells: E. coli
# Assay: Protein-protein interaction (PPI) HTRF assay KRAS G12D/RAF1
# Format: binding
# Conditions: KRAS G12D/RAF1, GppNHp-loaded KRAS; 30 minutes pre-incubation
# Procedure, shortened: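 IC50 values come from the 665/615 HTRF ratio, scaled between no-compound (0% inhibition) and untagged RAF1 (100%). GppNHp-exchanged, biotinylated RAS (1-169) solution at 16 nM met compound for 30 min at room temperature. Then 16 nM His-tagged RAF1 (52-131) donor solution was added and incubated 1 h.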
# T1 sequence (P01116 1-169 isoform P01116-2 G12D): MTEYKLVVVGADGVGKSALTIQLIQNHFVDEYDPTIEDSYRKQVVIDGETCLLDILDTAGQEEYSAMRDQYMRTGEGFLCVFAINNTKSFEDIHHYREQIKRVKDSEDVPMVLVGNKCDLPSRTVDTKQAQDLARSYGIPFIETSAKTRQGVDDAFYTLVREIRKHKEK
row,SMILES,IC50 [µM]
1,"CN(C)CC1(COc2nc3c(c(N4CCCn5nc(C(=O)N(C)C)c(Cl)c5C4)n2)CN(C)[C@@]2(CCCc4ccccc42)C3)CC1(F)F (stereo partly drawn) [Compound 97, 3-chloro-5-[(7S)-2-[[1-[(dimethylamino)methyl]-2,2-difluoro-cyclopropyl]methoxy]-6-methyl-spiro[5,8-dihydropyrido[4,3-d]pyrimidine-7,1′-tetralin]-4-yl]-N,N-dimethyl-4,6,7,8-tetrahydropyrazolo[1,5-a][1,4]diazepine-2-carboxamide]",> 100
2,"Cc1c(C(=O)N(C)C)nn2c1CN(c1nc(OC[C@@]34CCCN3C[C@H](F)C4)nc3c1CO[C@@]1(CCc4c(Cl)cccc41)C3)CCC2 [Compound 42, 5-[(7S)-4′-chloro-2-[[(2R,8S)-2-fluoro-1,2,3,5,6,7-hexahydropyrrolizin-8-yl]methoxy]spiro[5,8-dihydropyrano[4,3-d]pyrimidine-7,1′-indane]-4-yl]-N,N,3-trimethyl-4,6,7,8-tetrahydropyrazolo[1,5-a][1,4]diazepine-2-carboxamide]",10 to 100
3,"OC1CCCN(c2nc(OC[C@@]34CCCN3C[C@H](F)C4)nc3c2COC2(CCCc4c(Cl)cccc42)C3)CC1 (stereo partly drawn) [Compound 15, 1-[5′-chloro-2-[[(2R,8S)-2-fluoro-1,2,3,5,6,7-hexahydropyrrolizin-8-yl]methoxy]spiro[5,8-dihydropyrano[4,3-d]pyrimidine-7,1′-tetralin]-4-yl]azepan-4-ol]",> 100
4,"F[C@H]1CN2CCC[C@@]2(COc2nc3c(c(N4C[C@H]5CC[C@@H](C4)N5)n2)COC2(CCCc4c(Br)cccc42)C3)C1 (stereo partly drawn) [Compound 10, 5′-bromo-4-(3,8-diazabicyclo[3.2.1]octan-3-yl)-2-[[(2R,8S)-2-fluoro-1,2,3,5,6,7-hexahydropyrrolizin-8-yl]methoxy]spiro[5,8-dihydropyrano[4,3-d]pyrimidine-7,1′-tetralin]]",> 100
5,"F[C@H]1CN2CCC[C@@]2(COc2nc3c(c(N4CCC=CCC4)n2)COC2(CCc4c(Cl)cccc42)C3)C1 (stereo partly drawn) [Compound 18, 4′-chloro-2-[[(2R,8S)-2-fluoro-1,2,3,5,6,7-hexahydropyrrolizin-8-yl]methoxy]-4-(2,3,6,7-tetrahydroazepin-1-yl)spiro[5,8-dihydropyrano[4,3-d]pyrimidine-7,1′-indane]]",10 to 100
6,"Oc1ccc2c(c1)C1(CCC2)Cc2nc(OC[C@@]34CCCN3C[C@H](F)C4)nc(N3CCCCCC3)c2CO1 (single isomer, unassigned) [Compound 8]",> 100
7,"N#CC1CCCN(c2nc(OC[C@@]34CCCN3C[C@H](F)C4)nc3c2COC2(CCc4c(Cl)cccc42)C3)CC1 (stereo partly drawn) [Compound 16, 1-(4-chloro-2′-(((2R,7aS)-2-fluorotetrahydro-1H-pyrrolizin-7a(5H)-yl)methoxy)-2,3,5′,8′-tetrahydrospiro[indene-1,7′-pyrano[4,3-d]pyrimidin]-4′-yl)azepane-4-carbonitrile]",> 100
8,"OC1CCCN(c2nc(OC[C@@]34CCCN3C[C@H](F)C4)nc3c2COC2(CCc4c(Cl)cccc42)C3)CC1 (mixture of isomers) [Compound 6, 1-[4′-chloro-2-[[rac-(2R,8S)-2-fluoro-1,2,3,5,6,7-hexahydropyrrolizin-8-yl]methoxy]spiro[5,8-dihydropyrano[4,3-d]pyrimidine-7,1′-indane]-4-yl]azepan-4-ol]",> 100
9,"O=C(c1nn2c(c1Cl)CN(c1nc(OC[C@@]34CCCN3C[C@H](F)C4)nc3c1CO[C@@]1(CCc4c(Cl)cccc41)C3)CCC2)N1CCOCC1 [Compound 45, [3-chloro-5-[(7S)-4′-chloro-2-[[(2R,8S)-2-fluoro-1,2,3,5,6,7-hexahydropyrrolizin-8-yl]methoxy]spiro[5,8-dihydropyrano[4,3-d]pyrimidine-7,1′-indane]-4-yl]-4,6,7,8-tetrahydropyrazolo[1,5-a][1,4]diazepin-2-yl]-morpholino-methanone]",10 to 100
10,"N#CNC1CCCN(c2nc(OC[C@@]34CCCN3C[C@H](F)C4)nc3c2COC2(CCc4c(Cl)cccc42)C3)C1 (stereo partly drawn) [Compound 29, [1-[4′-chloro-2-[[(2R,8S)-2-fluoro-1,2,3,5,6,7-hexahydropyrrolizin-8-yl]methoxy]spiro[5,8-dihydropyrano[4,3-d]pyrimidine-7,1′-indane]-4-yl]-3-piperidyl]cyanamide]",10 to 100
11,"CN1Cc2c(nc(OC[C@@]34CCCN3C[C@H](F)C4)nc2N2CCCn3nc(N)c(Cl)c3C2)C[C@]12CCCc1ccccc12 [Compound 79, 3-chloro-5-[(7S)-2-[[(2R,8S)-2-fluoro-1,2,3,5,6,7-hexahydropyrrolizin-8-yl]methoxy]-6-methyl-spiro[5,8-dihydropyrido[4,3-d]pyrimidine-7,1′-tetralin]-4-yl]-4,6,7,8-tetrahydropyrazolo[1,5-a][1,4]diazepin-2-amine]",> 100
12,"CN1Cc2c(nc(OC[C@@]34CCCN3C[C@H](F)C4)nc2N2C[C@H]3CC[C@@H](C2)N3)C[C@]12CCCc1ccccc12 [Compound 84, (7S)-4-[(1R,5S)-3,8-diazabicyclo[3.2.1]octan-3-yl]-2-[[(2R,8S)-2-fluoro-1,2,3,5,6,7-hexahydropyrrolizin-8-yl]methoxy]-6-methyl-spiro[5,8-dihydropyrido[4,3-d]pyrimidine-7,1′-tetralin]]",> 100
13,"O=C(c1nn2c(c1Cl)CN(c1nc(OC[C@@]34CCCN3C[C@H](F)C4)nc3c1CO[C@@]1(CCc4c(Cl)cccc41)C3)CCC2)N1CCNCC1 [Compound 49, [3-chloro-5-[(7S)-4′-chloro-2-[[(2R,8S)-2-fluoro-1,2,3,5,6,7-hexahydropyrrolizin-8-yl]methoxy]spiro[5,8-dihydropyrano[4,3-d]pyrimidine-7,1′-indane]-4-yl]-4,6,7,8-tetrahydropyrazolo[1,5-a][1,4]diazepin-2-yl]-piperazin-1-yl-methanone]",10 to 100
14,"Oc1ccc2c(c1)C1(CCC2)Cc2nc(OC[C@@]34CCCN3C[C@H](F)C4)nc(N3CCCC(O)CC3)c2CO1 (stereo partly drawn) [Compound 14, 2-[[(2S,8R)-2-fluoro-1,2,3,5,6,7-hexahydropyrrolizin-8-yl]methoxy]-4-(4-hydroxyazepan-1-yl)spiro[5,8-dihydropyrano[4,3-d]pyrimidine-7,4′-tetralin]-6′-ol]",> 100
15,"OC1CCCN(c2nc(OC[C@@]34CCCN3C[C@H](F)C4)nc3c2COC2(CCCc4ccc(Cl)cc42)C3)CC1 (stereo partly drawn) [Compound 17, 1-(7-chloro-2′-(((2R,7aS)-2-fluorotetrahydro-1H-pyrrolizin-7a(5H)-yl)methoxy)-3,4,5′,8′-tetrahydro-2H-spiro[naphthalene-1,7′-pyrano[4,3-d]pyrimidin]-4′-yl)azepan-4-ol]",10 to 100
16,"CN1Cc2c(nc(OC[C@@]34CCCN3C[C@H](F)C4)nc2N2CCC[C@]3(C2)NC(=O)NC3=O)C[C@]12CCc1ccccc12 [Compound 60, (5R)-9-[(7S)-2-[[(2R,8S)-2-fluoro-1,2,3,5,6,7-hexahydropyrrolizin-8-yl]methoxy]-6-methyl-spiro[5,8-dihydropyrido[4,3-d]pyrimidine-7,1′-indane]-4-yl]-1,3,9-triazaspiro[4.5]decane-2,4-dione]",10 to 100
